Source: patent US20080311656A1, “Meiosis arrest in oocytes in vitro” (Novo Nordisk A/S, priority 2002, published 2008)
Entries after “also recorded” stand apart in the source; their conditions may differ.

Experiments:
[1] = tested on: polar body extruded oocytes; experiment: Confocal laser microscopy for microfilaments and chromosome analysis; type: cell-based, human
Protocol: For localization of microfilaments, 39 polar body extruded oocytes (25 oocytes 48 hours after maturation in control medium and 14 oocytes after inhibitor removal) were fixed with 2.5% glutaraldehyde in cacodylate buffer for at least 2 hours, washed with PBS/1% BSA, placed into 0.1% Triton X-100 for 5 min and rinsed again with PBS. Afterwards, oocytes were placed into Texas red-labeled phalloidin staining f-actin diluted 1:40 PBS for f-actin and Pico green 1:2000 PBS for DNA staining.

isolated oocytes = settings: rodents; cited from earlier work
Human oocytes (COCs) [2] = experiment: Light and electron microscopy of oocytes arrested by DDMP; type: cell-based
Protocol: During evaluation at 24 hours and 48 hours culture, part of the oocytes with and without DDMP were fixed for EM analysis.
A total of 48 oocytes (4 at time of retrieval, 21 after 24 hours, 20 after 48 hours and 3 after 72 hours culture) were fixed in glutaraldehyde 2.5% in cacodylate buffer at pH 7.3 for at least 2 hours at 4° C. at time 0 h, 24 hours and 48 hours of maturation. All oocytes were embedded individually. Afterwards, they were postfixed in OsO4 1% in H2O for 30 min, stained with uranyl acetate 2% in veronal buffer for 60 min, dehydrated through graded alcohols, embedded in SPURR (Taab; Bodson, Liège, Belgium) and left to polymerize overnight at 70° C.
Semithin sections of 0.5 μm and ultrathin sections of 75 nm were made at approximately 30 levels (range 15-35). The semithin sections were mounted on glass slides and stained with toluidine blue for light microscopical guidance. […]
In order to analyse the effect of PDE 3 inhibition on nuclear and cytoplasm organization, ultrastructural observation was performed at the different culture times in oocytes arrested or not by DDMP. The oocytes analyzed did originate from follicles with diameter between 8-12 mm.

Human oocytes (COCs) [3] = experiment: Meiosis arrest (nuclear maturation stage GV/GVBD/PB) of COCs cultured with DDMP; type: cell-based; settings: for oocytes still arrested at the GV-stage: 72 hours in DDMP
Protocol: (§1) Patients included in this study were undergoing fertility treatment and were primed with variable doses of gonadotropins while being carefully monitored using serum hormone and vaginal ultrasound monitoring (Human Reproduction 7 (1992), 49 et seq.). Collection of oocytes cumulus complexes (COCs) from different follicle sizes was performed as follows: 1°) during laparoscopic surgery, 2°) aspirated from patients with stimulated ovaries undergoing follicle reduction before intrauterine insemination (to avoid multiple gestation due to multiple ovulation) (Albano et al, 2001) or 3°) during ovum pick up after having aspirated the larger follicles (>15 mm) destinated for IVF treatment (Human Reproduction 7 (1992), 49 et seq.). Basically, these aspirations yielded two types of COC: a first group that had never been exposed to LH activity (pre-hCG) and a second group of follicles 36 h after an exposure to hCG (injected) or endogenous LH (spontaneous LH peak). When possible, follicle diameters were recorded by vaginal ultrasound measurement. COCs used in this study were retrieved from follicles with diameters between 6 and 14 mm.
Human oocytes aspiration was performed by ultrasound-guided transvaginal follicle aspiration using a single lumen needle (Cook, K-OPS-1230-VUB, Switzerland AG) after paracervical infiltration with a local anesthetic. The aspiration pressure used was reduced from the usual 100 mmHg for recovery of mature oocytes to 60 mmHg. Follicles were flushed using HEPES-buffered Earle's medium at least three times.
(§2) At the time of oocyte retrieval only the COCs classified as I or II were placed in culture.
Twenty-four hours later, oocyte stages were recorded and oocytes showing a clear polar body extrusion were removed from culture. After 48 hours, all oocytes were assessed and GV, GVBD and polar body extruded ones were recorded.
(§3) The basal medium used for oocyte culture was D-MEM (D-5280, Life Technologies, Merelbeke, Belgium) with 2 mM Glutamax-1, NaHCO3 (2 g/L) supplemented with 10 mIU/ml FSH (Gonal-F®, kindly donated by Ares Serono, Geneva, Switzerland), 100 ng/ml IGF-I (R&D, UK), 5 ng/ml insulin, 5 ng/ml selenium, 5 μg/ml transferrin (Life technologies, Merelbeke, Belgium) and 0.1% human serum albumin (CAF-DCF, Brussels, Belgium). 17β-E2 (Sigma, Bornem, Belgium) was diluted in ethanol and added to oil to reach a final concentration of 1 μg/ml in the 10 μl medium droplets underneath (this concentration was measured using specific radioimmunoassay). Microdroplets of 10 μl medium, were covered with 2 ml of oil. A refreshment of […] conditioned medium was performed each 24 hours. All cultures were carried out at 37° C. in humidified atmosphere in an incubator gassed with 5% CO2 in air.
(§4) DDMP was added at a 10 μM final concentration (0.1% DMSO). Directly after aspiration, single COCs were washed in flushing medium (D-MEM with HEPES) and placed into […] droplets under oil. COCs were randomised over two culture conditions: with and without DDMP. Oocytes cultured with DDMP for 24 hours, 48 hours and 72 hours were studied for reversal of meiosis arrest by washing out the inhibitor. Reversal of PDE 3 inhibition was performed by mechanical denudation of the remaining somatic cells and placing the oocytes in the conditioned medium for an additional 24-30 h.
(§5) Evaluation of cumulus morphology expansion in culture related to follicle treatment, resumption of maturation, kinetics of GVBD and polar body extrusion were analysed using the χ^2test and Fisher's exact test for comparison between control and DDMP treated groups. Statistical significance was considered when P<0.05.

[4] = tested on: Human oocytes arrested at GV-stage; experiment: Reversal of meiosis arrest after washing out the inhibitor; type: cell-based
Protocol: as §4, with “Reversal of PDE 3 inhibition was performed by mechanical denudation of the remaining somatic cells and placing the oocytes in the conditioned medium for an additional 24-30 h.” left out
as §5

[5] = tested on: cumulus-corona cells of COCs; experiment: Cumulus cell expansion (COC types I-IV) during culture in the presence of DDMP; type: cell-based, human
Protocol: as §1
The COCs were evaluated immediately after aspiration and after 24 hours and 48 hours culture and classified as follows: type (I), compact mass of 3-5 layers of granulosa cells; type (II), expanded distal layers of granulosa cells (cumulus), but a compact proximal granulosa cell layer; type (III), expanded distal (cumulus) and proximal (corona cells) layers of granulosa cells; and type (IV) partially denuded oocytes due to expanded granulosa cells.
as §2, §3, §4, §5

[6] = inhibitor removal day 2 (48 hours in DDMP), post-hCG, 11 oocytes
[7] = inhibitor removal day 2 (48 hours in DDMP), pre-hCG, 11 oocytes
[8] = inhibitor removal day 3 (72 hours in DDMP), post-hCG, 10 oocytes
[9] = inhibitor removal day 3 (72 hours in DDMP), pre-hCG, 13 oocytes
[10] = post-hCG COCs, 24 hours culture in DDMP 10 μM
[11] = pre-hCG COCs, 24 hours culture in DDMP 10 μM

Compound: COc1cc2cc(C3=NNC(=O)CC3C)sc2cc1OC (stereo not shown) [DDMP, 4,5-dihydro-6-(5,6-dimethoxybenzo[b]thien-2-yl)-5-methyl-3(2H)-pyridazinone]
- number of oocytes presenting the M II plate 24-30 hours after inhibitor removal ([1]; 3 out of 3 pre-hCG and 9 out of 11 post-hCG): Twelve
- number of oocytes with nuclei forming a clump of chromosomes at place of metaphase plate ([1]; 24-30 hours after inhibitor removal): Two
- M II oocytes with well-aligned chromosomes positioned perpendicular to the oolema ([1]; 24-30 hours after inhibitor removal, control 80.0%): 83.3%
- reversibility of blocking effects (isolated oocytes): fully reversible
- ultrastructural morphological signs of oocyte degeneration (Human oocytes (COCs) [2]; DDMP 10 μM, at least 48 hours culture): without ultrastructural morphological signs of oocyte degeneration
- morphological aspect of COC (degeneration) (Human oocytes (COCs) [2]; arrested in vitro for 72 hours in presence of DDMP (FIG. 11)): degenerative aspect
- time up to which nuclear arrest could be held on (Human oocytes (COCs) [3]; DDMP 10 μM): up to 72 hours
- time for which resumption of meiosis was blocked / meiotic arrest in GV maintained (Human oocytes (COCs) [3]; DDMP 10 μM, COCs from antral follicles): at least 48 hours
- oocytes remaining at GV-stage (Human oocytes (COCs) [3]; post-hCG COCs (n=42), 24 hours, DDMP 10 μM, control 22.5%): 92.9%
- COCs classified type II at retrieval that remained arrested at the GV-stage (Human oocytes (COCs) [3]; post-hCG COCs of type II at retrieval, 48 hours culture with DDMP): 77.6%
- oocytes that extruded a visible polar body (PB) (Human oocytes (COCs) [3]; post-hCG COCs, 24 hours, DDMP 10 μM, control 10.0%): 2.4%
- oocytes at the GV-stage (Human oocytes (COCs) [3]; post-hCG COCs, 48 hours, DDMP 10 μM, control 6.0%): 83.3%
- oocytes at GVBD (Human oocytes (COCs) [3]; post-hCG COCs, 48 hours, DDMP 10 μM, control 12.1%): 8.3%
- oocytes at PB (Human oocytes (COCs) [3]; post-hCG COCs, 48 hours, DDMP 10 μM, control 81.8%): 5.6%
- oocytes still arrested at the GV-stage (Human oocytes (COCs) [3]; post-hCG, 10 out of 15): 66.6%
- oocytes remaining at GV-stage (Human oocytes (COCs) [3]; pre-hCG COCs (n=39), 24 hours, DDMP 10 μM, control 24.3%): all oocytes remained at GV-stage
- oocytes at GVBD (Human oocytes (COCs) [3]; pre-hCG COCs, 48 hours, DDMP 10 μM, control 12.9%): 5.5%
- oocytes remaining at GV-stage (Human oocytes (COCs) [3]; pre-hCG COCs, 48 hours, DDMP 10 μM, control 19.3%): 88.9%
- oocytes at PB (Human oocytes (COCs) [3]; pre-hCG COCs, 48 hours, DDMP 10 μM, control 64.5%): 2.8%
- oocytes still arrested at the GV-stage (Human oocytes (COCs) [3]; pre-hCG, 16 out of 19): 84.2%
- number of oocytes that progressed to GVBD after inhibitor wash-out ([4]; 48 hours in DDMP, post-hCG, 11 oocytes, 24-30 h in control medium): 11
- number of oocytes that progressed to GVBD after inhibitor wash-out ([4]; 48 hours in DDMP, pre-hCG, 11 oocytes, 24-30 h in control medium): 4
- number of oocytes that progressed to GVBD after inhibitor wash-out ([4]; 72 hours in DDMP, pre-hCG, 13 oocytes, 24 to 30 hours in conditioned medium): 7
- PB (%) 24-30 hours after DDMP removal [4, 6]: 54%
- number of oocytes at GVBD (arrested at this stage) 24-30 hours after DDMP removal [4, 6]: 5
- number of oocytes at PB 24-30 hours after DDMP removal [4, 6]: 6
- PB (%) 24-30 hours after DDMP removal [4, 7]: 27%
- number of oocytes at GV 24-30 hours after DDMP removal [4, 7]: 7
- number of oocytes at GVBD (arrested at this stage) 24-30 hours after DDMP removal [4, 7]: 1
- number of oocytes at PB 24-30 hours after DDMP removal [4, 7]: 3
- PB (%) 24-30 hours after DDMP removal [4, 8]: 100%
- number of oocytes at PB 24-30 hours after DDMP removal [4, 8]: 10
- PB (%) 24-30 hours after DDMP removal [4, 9]: 46%
- number of oocytes at GV 24-30 hours after DDMP removal [4, 9]: 6
- number of oocytes at GVBD (arrested at this stage) 24-30 hours after DDMP removal [4, 9]: 1
- number of oocytes at PB 24-30 hours after DDMP removal [4, 9]: 6
- resumption of meiosis after inhibitor removal ([4]; oocytes arrested with DDMP 10 μM): capable of resuming meiosis within the normal time frame
- influence on expansion and mucification pattern of COC / loss of coupling between somatic cells and oocyte ([5]; DDMP 10 μM versus control medium, before and during culture): not modified; also recorded: no influence
- proportion of COCs classified type I ([5]; post-hCG COCs of the DDMP group, at retrieval (0 hour, baseline)): 48.8%
- oocytes that had lost connection with cumulus cells (type IV) [5, 10]: 7.1%
- proportion of COCs classified type I [5, 10]: 4.7%
- proportion of COCs classified type II [5, 10]: 57.1%
- proportion of COCs classified type III [5, 10]: 30.9%
- oocytes that had lost connections with the somatic cells (type IV) ([5]; post-hCG COCs, 48 hours culture in DDMP 10 μM): 62.1%
- proportion of COCs classified type I ([5]; pre-hCG COCs of the DDMP group, at retrieval (0 hour, baseline)): 74.4%
- proportion of COCs classified type I [5, 11]: 25.6%
- proportion of COCs classified type II [5, 11]: 56.4%
- proportion of COCs classified type III [5, 11]: 15.4%
- oocytes that had lost their connections with the cumulus cells (type IV) ([5]; pre-hCG COCs, 48 hours culture in DDMP 10 μM): 22.2%
